“And” between values parts separate entries of the source, which are not always exact repeats. Equal entries are not always repeated. Structures can show the parent of a compound that is named as a salt.
Assay: RP-HPLC retention on XTerra RP18, methanol/buffer; extrapolated retention factor log kw and slope S
Format: physicochemical
Settings: pH 4.4; intercept, extrapolated to 100 % buffer; methanol/buffer, 25 °C

Compound | log kw
c1ccc2c(c1)CCCC2C1=NCCN1 (stereo not shown) [Tetrahydrozoline, tetrahydrozoline hydrochloride] | 1.06 ± 0.02
COc1cc2nc(N3CCN(C(=O)C4COc5ccccc5O4)CC3)nc(N)c2cc1OC (stereo not shown) [Doxazosin, doxazosin mesilat] | 3.42 ± 0.07
CNCCCC12CCC(c3ccccc31)c1ccccc12 [Maprotiline, maprotiline hydrochloride] | 2.90 ± 0.08
CC1Cc2ccccc2N1NC(=O)c1ccc(Cl)c(S(N)(=O)=O)c1 (stereo not shown) [Indapamide, indapamide] | 2.69 ± 0.02

Same assay, conditions: pH 4.4; slope of log k vs methanol volume fraction

Compound | S (slope)
c1ccc2c(c1)CCCC2C1=NCCN1 (stereo not shown) [Tetrahydrozoline, tetrahydrozoline hydrochloride] | -2.94 ± 0.05
COc1cc2nc(N3CCN(C(=O)C4COc5ccccc5O4)CC3)nc(N)c2cc1OC (stereo not shown) [Doxazosin, doxazosin mesilat] | -5.56 ± 0.14
CNCCCC12CCC(c3ccccc31)c1ccccc12 [Maprotiline, maprotiline hydrochloride] | -4.31 ± 0.14
CC1Cc2ccccc2N1NC(=O)c1ccc(Cl)c(S(N)(=O)=O)c1 (stereo not shown) [Indapamide, indapamide] | -4.16 ± 0.06

Same assay, conditions: pH 7.4; intercept, extrapolated to 100 % buffer; methanol/buffer, 25 °C

Compound | log kw
c1ccc2c(c1)CCCC2C1=NCCN1 (stereo not shown) [Tetrahydrozoline, tetrahydrozoline hydrochloride] | 1.08 ± 0.01
COc1cc2nc(N3CCN(C(=O)C4COc5ccccc5O4)CC3)nc(N)c2cc1OC (stereo not shown) [Doxazosin, doxazosin mesilat] | 3.67 ± 0.11
CNCCCC12CCC(c3ccccc31)c1ccccc12 [Maprotiline, maprotiline hydrochloride] | 2.58 ± 0.12
CC1Cc2ccccc2N1NC(=O)c1ccc(Cl)c(S(N)(=O)=O)c1 (stereo not shown) [Indapamide, indapamide] | 2.55 ± 0.02

Same assay, conditions: pH 7.4; slope of log k vs methanol volume fraction

Compound | S (slope)
c1ccc2c(c1)CCCC2C1=NCCN1 (stereo not shown) [Tetrahydrozoline, tetrahydrozoline hydrochloride] | -3.24 ± 0.06
COc1cc2nc(N3CCN(C(=O)C4COc5ccccc5O4)CC3)nc(N)c2cc1OC (stereo not shown) [Doxazosin, doxazosin mesilat] | -5.05 ± 0.19
CNCCCC12CCC(c3ccccc31)c1ccccc12 [Maprotiline, maprotiline hydrochloride] | -3.18 ± 0.20
CC1Cc2ccccc2N1NC(=O)c1ccc(Cl)c(S(N)(=O)=O)c1 (stereo not shown) [Indapamide, indapamide] | -4.19 ± 0.04

Same assay, conditions: pH 9.1; intercept, extrapolated to 100 % buffer; methanol/buffer, 25 °C

Compound | log kw
c1ccc2c(c1)CCCC2C1=NCCN1 (stereo not shown) [Tetrahydrozoline, tetrahydrozoline hydrochloride] | 1.32 ± 0.03
COc1cc2nc(N3CCN(C(=O)C4COc5ccccc5O4)CC3)nc(N)c2cc1OC (stereo not shown) [Doxazosin, doxazosin mesilat] | 3.60 ± 0.11
CNCCCC12CCC(c3ccccc31)c1ccccc12 [Maprotiline, maprotiline hydrochloride] | 3.09 ± 0.08
CC1Cc2ccccc2N1NC(=O)c1ccc(Cl)c(S(N)(=O)=O)c1 (stereo not shown) [Indapamide, indapamide] | 2.35 ± 0.03

Same assay, conditions: pH 9.1; slope of log k vs methanol volume fraction

Compound | S (slope)
c1ccc2c(c1)CCCC2C1=NCCN1 (stereo not shown) [Tetrahydrozoline, tetrahydrozoline hydrochloride] | -2.99 ± 0.07
COc1cc2nc(N3CCN(C(=O)C4COc5ccccc5O4)CC3)nc(N)c2cc1OC (stereo not shown) [Doxazosin, doxazosin mesilat] | -4.95 ± 0.20
CNCCCC12CCC(c3ccccc31)c1ccccc12 [Maprotiline, maprotiline hydrochloride] | -4.20 ± 0.14
CC1Cc2ccccc2N1NC(=O)c1ccc(Cl)c(S(N)(=O)=O)c1 (stereo not shown) [Indapamide, indapamide] | -3.78 ± 0.06

Assay: Capillary electrophoresis, effective electrophoretic mobility (acetone as EOF marker)
Format: physicochemical
Settings: pH 4.4
Procedure: All experiments were performed using the SpectraPhoresis 500-capillary electrophoresis system (Spectra Physics Analytical, USA) with UV detector. Data were recorded and analyzed using ChromQuest software version 4.0 (Thermo Finnigan, USA).
The separations were performed with an uncoated fused capillary (total length 31.5 cm, 50 μm id, effective length 24 cm, Polymicro Technologies, USA) applying a voltage of 11 kV and at 25 °C. The samples were injected hydrodynamically and detection was performed in the 200-280 nm range. The new capillary was rinsed stepwise with 0.1 M NaOH (15 min), water (10 min) and a running buffer (10 min). Finally, a 10 min high voltage was applied through the background electrolyte-filled capillary to equalize the inner surface, stabilize the electroosmotic flow and ensure good reproducibility of injections from run to run. […] Between runs, the capillary was rinsed with the background electrolyte for 1 minute.
where Lt is the total length of the capillary (cm), Leff is the effective length of the capillary (cm), U is the applied voltage (V), tm is the migration time of the analyte (s) and teof is the migration time of the electroneutral EOF marker acetone (s). The calculated μeff values (μeff4.4, μeff7.4 and μeff9.1) were used as dependent variables in QSMR analysis.

Compound | μeff4.4 (effective electrophoretic mobility)
CC1Cc2ccccc2N1NC(=O)c1ccc(Cl)c(S(N)(=O)=O)c1 (stereo not shown) [Indapamide, indapamide] | 0 10^-5 cm^2 / V s and 0.000 ± 0.000 10^-5 cm^2 / V s

Same assay, conditions: pH 4.4; I = 25 mmol/L, 11 kV, 25 °C, three replicates

Compound | µeff4.4
c1ccc2c(c1)CCCC2C1=NCCN1 (stereo not shown) [Tetrahydrozoline, tetrahydrozoline hydrochloride] | 25.680 ± 0.049 10^-5 cm^2 V^-1 s^-1
COc1cc2nc(N3CCN(C(=O)C4COc5ccccc5O4)CC3)nc(N)c2cc1OC (stereo not shown) [Doxazosin, doxazosin mesilat] | 15.795 ± 0.013 10^-5 cm^2 V^-1 s^-1
CNCCCC12CCC(c3ccccc31)c1ccccc12 [Maprotiline, maprotiline hydrochloride] | 20.559 ± 0.034 10^-5 cm^2 V^-1 s^-1
CC1Cc2ccccc2N1NC(=O)c1ccc(Cl)c(S(N)(=O)=O)c1 (stereo not shown) [Indapamide, indapamide] | 0.000 ± 0.000 10^-5 cm^2 V^-1 s^-1

Same assay, conditions: pH 7.4; I = 25 mmol/L, 11 kV, 25 °C, three replicates

Compound | µeff7.4
c1ccc2c(c1)CCCC2C1=NCCN1 (stereo not shown) [Tetrahydrozoline, tetrahydrozoline hydrochloride] | 24.299 ± 0.057 10^-5 cm^2 V^-1 s^-1
COc1cc2nc(N3CCN(C(=O)C4COc5ccccc5O4)CC3)nc(N)c2cc1OC (stereo not shown) [Doxazosin, doxazosin mesilat] | 3.137 ± 0.075 10^-5 cm^2 V^-1 s^-1
CNCCCC12CCC(c3ccccc31)c1ccccc12 [Maprotiline, maprotiline hydrochloride] | 18.696 ± 0.048 10^-5 cm^2 V^-1 s^-1
CC1Cc2ccccc2N1NC(=O)c1ccc(Cl)c(S(N)(=O)=O)c1 (stereo not shown) [Indapamide, indapamide] | 0.000 ± 0.000 10^-5 cm^2 V^-1 s^-1

Same assay, conditions: pH 9.1

Compound | μeff9.1 (effective electrophoretic mobility)
c1ccc2c(c1)CCCC2C1=NCCN1 (stereo not shown) [Tetrahydrozoline, tetrahydrozoline hydrochloride] | 25.05 10^-5 cm^2 / V s
COc1cc2nc(N3CCN(C(=O)C4COc5ccccc5O4)CC3)nc(N)c2cc1OC (stereo not shown) [Doxazosin, doxazosin mesilat] | zero
CC1Cc2ccccc2N1NC(=O)c1ccc(Cl)c(S(N)(=O)=O)c1 (stereo not shown) [Indapamide, indapamide] | negative values of effective mobility

Same assay, conditions: pH 9.1; I = 25 mmol/L, 11 kV, 25 °C, three replicates

Compound | µeff9.1
c1ccc2c(c1)CCCC2C1=NCCN1 (stereo not shown) [Tetrahydrozoline, tetrahydrozoline hydrochloride] | 25.047 ± 0.066 10^-5 cm^2 V^-1 s^-1
COc1cc2nc(N3CCN(C(=O)C4COc5ccccc5O4)CC3)nc(N)c2cc1OC (stereo not shown) [Doxazosin, doxazosin mesilat] | 0.000 ± 0.000 10^-5 cm^2 V^-1 s^-1
CNCCCC12CCC(c3ccccc31)c1ccccc12 [Maprotiline, maprotiline hydrochloride] | 19.402 ± 0.148 10^-5 cm^2 V^-1 s^-1
CC1Cc2ccccc2N1NC(=O)c1ccc(Cl)c(S(N)(=O)=O)c1 (stereo not shown) [Indapamide, indapamide] | -10.382 ± 0.053 10^-5 cm^2 V^-1 s^-1

Assay: not given
Settings: pH titration; ref 4 (Supplement reference list); cited from earlier work

Compound | pKa experimental
c1ccc2c(c1)CCCC2C1=NCCN1 (stereo not shown) [Tetrahydrozoline, tetrahydrozoline hydrochloride] | 10.51 ± 0.05

Same assay, conditions: potentiometric; ref 11 (Supplement reference list); cited from earlier work

Compound | pKa experimental
CNCCCC12CCC(c3ccccc31)c1ccccc12 [Maprotiline, maprotiline hydrochloride] | 10.45 ± 0.02

Same assay, conditions: voltammetric; ref 6 (Supplement reference list); cited from earlier work

Compound | pKa experimental
COc1cc2nc(N3CCN(C(=O)C4COc5ccccc5O4)CC3)nc(N)c2cc1OC (stereo not shown) [Doxazosin, doxazosin mesilat] | 6.89 ± 0.57

Source: publication PMC11542720, “Modelling of chromatographic and electrophoretic behaviour of imidazoline and alpha adrenergic receptors ligands under different acid-base conditions” (ADMET & DMPK, 2024)
